Assay results reported in patent US12281149B2, “Modulators of G-protein coupled receptors” (priority 2021, dated 2025).
*1 amine or outer side, *2 acyl side, *3 side chain or, on linkers, in order; H or OH if unused. Where a SMILES comes first, the peptide text is derived from it. Side-chain parts run from the residue outwards. [ ]: non-standard residue; d: D form. The star is where a group is joined. Isobutyryl(2-(3-CN-5-F-Ph)) = CC(C)(C(=O)*)c1cc(F)cc(C#N)c1; C20 diacid = O=C(O)CCCCCCCCCCCCCCCCCCC(=O)*; γGlu = O=C(O)[C@H](CCC(=O)[*:2])N[*:1]; X84 = O=C([C@H]1CCCN([*:1])C1)[*:2]; X59 = COc1ccc(C2(C(=O)*)CCCC2)cc1; X55 = COc1cccc(C(C)(C)C(=O)*)c1; X30 = CC(C)(C(=O)*)c1ccc(F)cc1; X41 = C[C@H](C(=O)*)c1ccccc1; AEEA = NCCOCCOCC(=O)O; Aib = CC(C)(N)C(=O)O; βAla = NCCC(=O)O

What was measured:
Type in all cases: cell-based
[1] = molecular target: T1, GLP-1 receptor (Homo sapiens, UniProt P43220); experiment: HitHunter cAMP assay, GLP-1 receptor; conditions: for EC50: CHO cells stably expressing human GLP-1 receptor, cAMP accumulation, 30 min, read-out: EC50 GLP-1R; for Emax: CHO cells, cAMP, normalized to maximum signal from GLP-1 (high) and DMSO (low), read-out: Emax GLP-1R
[2] = molecular target: T2, GIP receptor (Homo sapiens, UniProt P48546); experiment: HitHunter cAMP assay, GIP receptor; conditions: for EC50: CHO cells stably expressing GIP receptor, cAMP accumulation, 30 min, read-out: EC50 GIP-1R; for Emax: CHO cells, cAMP, normalized to maximum signal from GIP (high) and DMSO (low), read-out: Emax GIP-1R
T2 sequence (P48546 22-466): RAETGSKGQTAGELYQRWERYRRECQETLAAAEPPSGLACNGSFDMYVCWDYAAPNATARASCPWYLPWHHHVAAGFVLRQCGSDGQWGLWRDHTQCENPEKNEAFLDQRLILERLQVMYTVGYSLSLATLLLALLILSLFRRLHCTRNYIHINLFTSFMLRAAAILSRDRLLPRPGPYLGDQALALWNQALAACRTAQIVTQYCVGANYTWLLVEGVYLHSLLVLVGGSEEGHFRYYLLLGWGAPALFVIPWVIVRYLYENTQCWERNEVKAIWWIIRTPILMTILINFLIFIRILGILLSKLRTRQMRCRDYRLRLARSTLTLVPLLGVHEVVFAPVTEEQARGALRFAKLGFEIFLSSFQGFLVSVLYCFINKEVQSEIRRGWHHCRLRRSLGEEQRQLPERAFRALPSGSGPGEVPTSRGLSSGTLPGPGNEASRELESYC

[3] = molecular target: T2, GIP receptor; experiment: PathHunter β-arrestin assay, GIP receptor; design: host or cells: PathHunter CHO-K1 GIPR β-Arrestin Cell Line; conditions: β-arrestin-2 recruitment, PathHunter CHO-K1 GIPR β-Arrestin Cell Line, 90 min at 37° C.; normalized to GIP; read-out: GIPR β Arrestin EC50
[4] = molecular target: T1, GLP-1 receptor; experiment: PathHunter β-arrestin assay, GLP-1 receptor; design: host or cells: PathHunter CHO-K1 GLP1R β-Arrestin Cell Line; conditions: β-arrestin-2 recruitment, PathHunter CHO-K1 GLP1R β-Arrestin Cell Line, 90 min at 37° C.; normalized to GLP-1; read-out: GLP-1R β Arrestin EC50

T1 sequence (P43220 24-463): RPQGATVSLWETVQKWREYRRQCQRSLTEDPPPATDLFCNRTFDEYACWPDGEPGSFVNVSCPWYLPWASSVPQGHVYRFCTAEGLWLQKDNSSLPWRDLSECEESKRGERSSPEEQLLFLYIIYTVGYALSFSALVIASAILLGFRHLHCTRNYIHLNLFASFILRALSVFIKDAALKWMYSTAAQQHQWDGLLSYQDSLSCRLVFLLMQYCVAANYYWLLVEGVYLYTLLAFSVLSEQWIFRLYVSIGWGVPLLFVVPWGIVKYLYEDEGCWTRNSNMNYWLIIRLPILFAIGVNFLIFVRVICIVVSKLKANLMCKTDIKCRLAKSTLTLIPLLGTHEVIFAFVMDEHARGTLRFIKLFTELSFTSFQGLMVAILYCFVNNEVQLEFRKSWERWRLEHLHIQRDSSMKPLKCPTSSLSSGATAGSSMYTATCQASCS

Row | SMILES | EC50 [1] | Emax [1] | EC50 [2] | Emax [2] | EC50 [3] | EC50 [4]
1 | CC[C@H](C)[C@H](NC(=O)[C@H](CC(C)C)NC(=O)[C@H](Cc1c[nH]c2ccccc12)NC(=O)[C@H](CCC(N)=O)NC(=O)[C@@H](NC(=O)[C@H](Cc1ccccc1)NC(=O)[C@H](C)NC(=O)[C@H](CCCCNC(=O)COCCOCCNC(=O)COCCOCCNC(=O)CC[C@H](NC(=O)CCCCCCCCCCCCCCCCCCC(=O)O)C(=O)O)NC(=O)[C@H](CCC(N)=O)NC(=O)[C@H](C)NC(=O)[C@@H](NC(=O)[C@H](CCCCN)NC(=O)[C@H](CC(=O)O)NC(=O)[C@H](CC(C)C)NC(=O)C(C)(C)NC(=O)[C@@H](NC(=O)[C@H](CO)NC(=O)[C@H](Cc1ccc(O)cc1)NC(=O)[C@H](CC(=O)O)NC(=O)[C@H](CO)NC(=O)[C@@H](NC(=O)[C@H](Cc1ccccc1)NC(=O)[C@@H](NC(=O)CNC(=O)[C@H](CCC(=O)O)NC(=O)CCNC(=O)C1(c2ccc(OC)cc2)CCCC1)[C@@H](C)O)[C@@H](C)O)[C@@H](C)CC)[C@@H](C)CC)C(C)C)C(=O)N[C@@H](C)C(=O)NCC(=O)NCC(=O)N1CCC[C@H]1C(=O)N[C@@H](CO)C(=O)N[C@@H](CO)C(=O)NCC(=O)N[C@@H](C)C(=O)N1CCC[C@H]1C(=O)N1CCC[C@H]1C(=O)N1CCC[C@H]1C(=O)N[C@@H](CO)C(N)=O [Compound 208] ({X59-βAla}-EGTFTSDYSI[Aib]LDKIAQK([AEEA-AEEA-γGlu-C20 diacid])AFVQWLIAGGPSSGAPPPS-NH2) | 1 to 10 nM | 111% | 1 to 10 nM | 109% | < 1000 nM | > 1000 nM
2 | CC[C@H](C)[C@H](NC(=O)[C@H](CC(C)C)NC(=O)[C@H](Cc1c[nH]c2ccccc12)NC(=O)[C@H](CCC(N)=O)NC(=O)[C@@H](NC(=O)[C@H](Cc1ccccc1)NC(=O)[C@H](C)NC(=O)[C@H](CCCCNC(=O)COCCOCCNC(=O)COCCOCCNC(=O)CC[C@H](NC(=O)CCCCCCCCCCCCCCCCCCC(=O)O)C(=O)O)NC(=O)[C@H](CCC(N)=O)NC(=O)[C@H](C)NC(=O)[C@@H](NC(=O)[C@H](CCCCN)NC(=O)[C@H](CC(=O)O)NC(=O)[C@H](CC(C)C)NC(=O)C(C)(C)NC(=O)[C@@H](NC(=O)[C@H](CO)NC(=O)[C@H](Cc1ccc(O)cc1)NC(=O)[C@H](CC(=O)O)NC(=O)[C@H](CO)NC(=O)[C@@H](NC(=O)[C@H](Cc1ccccc1)NC(=O)[C@@H](NC(=O)CNC(=O)[C@H](CCC(=O)O)NC(=O)CCNC(=O)C(C)(C)c1cccc(OC)c1)[C@@H](C)O)[C@@H](C)O)[C@@H](C)CC)[C@@H](C)CC)C(C)C)C(=O)N[C@@H](C)C(=O)NCC(=O)NCC(=O)N1CCC[C@H]1C(=O)N[C@@H](CO)C(=O)N[C@@H](CO)C(=O)NCC(=O)N[C@@H](C)C(=O)N1CCC[C@H]1C(=O)N1CCC[C@H]1C(=O)N1CCC[C@H]1C(=O)N[C@@H](CO)C(N)=O [Compound 209] ({X55-βAla}-EGTFTSDYSI[Aib]LDKIAQK([AEEA-AEEA-γGlu-C20 diacid])AFVQWLIAGGPSSGAPPPS-NH2) | 0.1 to 1 nM | 101% | 10 to 100 nM | 105% | > 1000 nM | > 1000 nM
3 | CC[C@H](C)[C@H](NC(=O)[C@H](CC(C)C)NC(=O)[C@H](Cc1c[nH]c2ccccc12)NC(=O)[C@H](CCC(N)=O)NC(=O)[C@@H](NC(=O)[C@H](Cc1ccccc1)NC(=O)[C@H](C)NC(=O)[C@H](CCCCNC(=O)COCCOCCNC(=O)COCCOCCNC(=O)CC[C@H](NC(=O)CCCCCCCCCCCCCCCCCCC(=O)O)C(=O)O)NC(=O)[C@H](CCC(N)=O)NC(=O)[C@H](C)NC(=O)[C@@H](NC(=O)[C@H](CCCCN)NC(=O)[C@H](CC(=O)O)NC(=O)[C@H](CC(C)C)NC(=O)C(C)(C)NC(=O)[C@@H](NC(=O)[C@H](CO)NC(=O)[C@H](Cc1ccc(O)cc1)NC(=O)[C@H](CC(=O)O)NC(=O)[C@H](CO)NC(=O)[C@@H](NC(=O)[C@H](Cc1ccccc1)NC(=O)[C@@H](NC(=O)CNC(=O)[C@H](CCC(=O)O)NC(=O)CCNC(=O)C(C)(C)c1ccc(F)cc1)[C@@H](C)O)[C@@H](C)O)[C@@H](C)CC)[C@@H](C)CC)C(C)C)C(=O)N[C@@H](C)C(=O)NCC(=O)NCC(=O)N1CCC[C@H]1C(=O)N[C@@H](CO)C(=O)N[C@@H](CO)C(=O)NCC(=O)N[C@@H](C)C(=O)N1CCC[C@H]1C(=O)N1CCC[C@H]1C(=O)N1CCC[C@H]1C(=O)N[C@@H](CO)C(N)=O [Compound 210] ({X30-βAla}-EGTFTSDYSI[Aib]LDKIAQK([AEEA-AEEA-γGlu-C20 diacid])AFVQWLIAGGPSSGAPPPS-NH2) | 0.1 to 1 nM | 104% | 1 to 10 nM | 101% | > 1000 nM | > 1000 nM
4 | CC[C@H](C)[C@H](NC(=O)[C@H](CC(C)C)NC(=O)[C@H](Cc1c[nH]c2ccccc12)NC(=O)[C@H](CCC(N)=O)NC(=O)[C@@H](NC(=O)[C@H](Cc1ccccc1)NC(=O)[C@H](C)NC(=O)[C@H](CCCCNC(=O)COCCOCCNC(=O)COCCOCCNC(=O)CC[C@H](NC(=O)CCCCCCCCCCCCCCCCCCC(=O)O)C(=O)O)NC(=O)[C@H](CCC(N)=O)NC(=O)[C@H](C)NC(=O)[C@@H](NC(=O)[C@H](CCCCN)NC(=O)[C@H](CC(=O)O)NC(=O)[C@H](CC(C)C)NC(=O)C(C)(C)NC(=O)[C@@H](NC(=O)[C@H](CO)NC(=O)[C@H](Cc1ccc(O)cc1)NC(=O)[C@H](CC(=O)O)NC(=O)[C@H](CO)NC(=O)[C@@H](NC(=O)[C@H](Cc1ccccc1)NC(=O)[C@@H](NC(=O)CNC(=O)[C@H](CCC(=O)O)NC(=O)CCNC(=O)[C@@H](C)c1ccccc1)[C@@H](C)O)[C@@H](C)O)[C@@H](C)CC)[C@@H](C)CC)C(C)C)C(=O)N[C@@H](C)C(=O)NCC(=O)NCC(=O)N1CCC[C@H]1C(=O)N[C@@H](CO)C(=O)N[C@@H](CO)C(=O)NCC(=O)N[C@@H](C)C(=O)N1CCC[C@H]1C(=O)N1CCC[C@H]1C(=O)N1CCC[C@H]1C(=O)N[C@@H](CO)C(N)=O [Compound 211] ({X41-βAla}-EGTFTSDYSI[Aib]LDKIAQK([AEEA-AEEA-γGlu-C20 diacid])AFVQWLIAGGPSSGAPPPS-NH2) | 0.1 to 1 nM | 107% | 10 to 100 nM | 103% | > 1000 nM | > 1000 nM
5 | CC[C@H](C)[C@H](NC(=O)[C@H](CC(C)C)NC(=O)[C@H](Cc1c[nH]c2ccccc12)NC(=O)[C@H](CCC(N)=O)NC(=O)[C@@H](NC(=O)[C@H](Cc1ccccc1)NC(=O)[C@H](C)NC(=O)[C@H](CCCCNC(=O)COCCOCCNC(=O)COCCOCCNC(=O)CC[C@H](NC(=O)CCCCCCCCCCCCCCCCCCC(=O)O)C(=O)O)NC(=O)[C@H](CCC(N)=O)NC(=O)[C@H](C)NC(=O)[C@@H](NC(=O)[C@H](CCCCN)NC(=O)[C@H](CC(=O)O)NC(=O)[C@H](CC(C)C)NC(=O)C(C)(C)NC(=O)[C@@H](NC(=O)[C@H](CO)NC(=O)[C@H](Cc1ccc(O)cc1)NC(=O)[C@H](CC(=O)O)NC(=O)[C@H](CO)NC(=O)[C@@H](NC(=O)[C@H](Cc1ccccc1)NC(=O)[C@@H](NC(=O)CNC(=O)[C@H](CCC(=O)O)NC(=O)[C@H]1CCCN(C(=O)C(C)(C)c2cc(F)cc(C#N)c2)C1)[C@@H](C)O)[C@@H](C)O)[C@@H](C)CC)[C@@H](C)CC)C(C)C)C(=O)N[C@@H](C)C(=O)NCC(=O)NCC(=O)N1CCC[C@H]1C(=O)N[C@@H](CO)C(=O)N[C@@H](CO)C(=O)NCC(=O)N[C@@H](C)C(=O)N1CCC[C@H]1C(=O)N1CCC[C@H]1C(=O)N1CCC[C@H]1C(=O)N[C@@H](CO)C(N)=O [Compound 212] ({Isobutyryl(2-(3-CN-5-F-Ph))}-[X84]EGTFTSDYSI[Aib]LDKIAQK([AEEA-AEEA-γGlu-C20 diacid])AFVQWLIAGGPSSGAPPPS-NH2) | 10 to 100 nM | 89% | > 1000 nM |  | > 1000 nM | > 1000 nM
